Patent publication US9422312B2, “Azabenzimidazole derivatives” (Boehringer Ingelheim International GmbH, priority 2014, dated 2016)

Molecular target: Activated AMPK complex 1 (containing alpha1beta1gamma1) (Homo sapiens (Human), UniProt Q13131+Q9Y478)
Experiment: in vitro AMPK activation assay (ADP-Glo Kinase Assay)
Format: biochemical
Details: 1 μM peptide substrate, 30 μM ATP, 60 min, room temperature, luminescence
Description: Activated AMPK complex 1 (containing alpha1beta1gamma1) was obtained from baculovirus expression system. The gene encoding AMPK alpha1 was cloned into the pACG2T vector (BD Biosciences) to obtain a N-terminal Glutathion S transferase (GST)-fusion protein. The genes encoding AMPK beta 1 and gamma1 were cloned into the p2Bac dual multiple cloning site vector (Invitrogen) with beta1 under the control of the p10 promoter and gamma1 under the control of the PH promoter. The transfer vectors containing AMPK were co-transfected individually with AcPNV BacMagic-3 DNA (EMD Millipore) in Sf9 cells and the recombinant baculoviruses were harvested after 5 days, followed by 3 rounds of amplification of the virus stock in Sf9 cells. AMPK (alpha1beta1gamma1) was expressed in High Five 5 cells by co-infection of recombinant alpha1 virus and recombinant beta1/gamma1 virus for 72 h at 27° C. Cells were harvested by centrifugation and lysed by 3 freeze/thaw cycles in PBS with 10% glycerol and protease inhibitor cocktail (Roche). After centrifugation AMPK a1b1g1 in the supernatant was captured by immobilized glutathione (GE Healthcare), impurities were washed away with PBS and AMPK alpha1beta1gamma1 was eluted with PBS containing 20 mM reduced gluthathione. The protein buffer was then exchanged to PBS with 10% glycerol and protein concentration was determined by UV absorbance.
The white 384-well Optiplates (cat. no. 6007299) were purchased from PerkinElmer. The V9101 ADP-Glo Kinase Assay and ultra pure ATP (V915A) was purchased from Promega. The substrate for AMPK (NH2-HMRSAMSGLHLVKRR_CONH2) was purchased from Upstate (12-355).
Compounds were tested in either serial dilutions or single dose concentrations. The serial compound dilutions were prepared in 100% DMSO automatically. The final DMSO concentration in the assay was 0.1%.
The Compound Stock Solutions were 10 mM in 100% DMSO. The compounds were solubilised at room temperature.
In the 384-well plates 1.25 ul of test compound in assay buffer was mixed with 1.25 ul of AMPK and 1.25 μl of the peptide (final concentration of 1 μM) and 1.25 μl of ATP (final concentration of 30 μM), both dissolved in assay buffer. This step was followed by an incubation time of 60 min. Then 5 μl of ADP Glo Reagent was added. This was followed by 40 min of incubation. Then 10 μl of Kinase Detection Reagent was admixed. The plates were sealed and after an incubation period of 30 min, the luminescence signal was measured in an Envision reader. All incubation steps were accomplished at room temperature.
Each assay microtiter plate contained wells with vehicle controls instead of compound (0.1% DMSO in water) as reference for the low signal (100% CTL, low signal), and wells with serial dilutions of AMP (final 30 μM) as reference for high signals.
The luminescence signal generated was proportional to the ADP concentration produced and was correlated with AMPK activity. The analysis of the data was performed by the calculation of the percentage of ATP consumption of AMPK in the presence of the test compound compared to the consumption of ATP in the presence of AMPK without compound. (RLU(sample)/RLU(low control))*100[RLU=relative luminescence units]
An activator of the AMPK enzyme gave values above 100% CTL.
EC50 values based on dose response curves are calculated with the XIFIT software using the 4 Parameter Logistic Model or Sigmoidal Dose-Response Model.

Activated AMPK complex 1 (containing alpha1beta1gamma1), sequence (Q13131 whole entry): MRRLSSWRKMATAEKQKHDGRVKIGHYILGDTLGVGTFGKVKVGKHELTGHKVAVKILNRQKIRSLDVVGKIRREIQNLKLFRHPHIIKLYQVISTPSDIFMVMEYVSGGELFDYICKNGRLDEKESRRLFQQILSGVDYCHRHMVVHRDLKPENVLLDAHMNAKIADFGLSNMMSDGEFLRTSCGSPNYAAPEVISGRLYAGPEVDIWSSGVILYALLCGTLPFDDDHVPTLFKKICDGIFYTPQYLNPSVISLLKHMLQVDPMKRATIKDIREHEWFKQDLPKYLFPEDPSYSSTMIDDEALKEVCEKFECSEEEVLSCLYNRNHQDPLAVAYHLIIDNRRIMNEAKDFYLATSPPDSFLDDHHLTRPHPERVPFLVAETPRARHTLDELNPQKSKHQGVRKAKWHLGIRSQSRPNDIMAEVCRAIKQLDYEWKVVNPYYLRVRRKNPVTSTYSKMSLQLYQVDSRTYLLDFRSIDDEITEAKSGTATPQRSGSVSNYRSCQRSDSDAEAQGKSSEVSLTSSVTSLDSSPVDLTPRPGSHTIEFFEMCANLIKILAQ
Activated AMPK complex 1 (containing alpha1beta1gamma1), sequence (Q9Y478 whole entry): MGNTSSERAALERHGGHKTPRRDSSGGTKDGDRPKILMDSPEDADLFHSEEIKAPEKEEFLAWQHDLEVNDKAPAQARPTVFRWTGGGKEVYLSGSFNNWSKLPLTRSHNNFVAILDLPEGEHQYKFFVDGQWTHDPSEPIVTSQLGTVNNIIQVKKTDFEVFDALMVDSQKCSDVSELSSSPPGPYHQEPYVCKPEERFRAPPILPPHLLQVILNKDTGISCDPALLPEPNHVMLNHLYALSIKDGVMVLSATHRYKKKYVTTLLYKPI
Activated AMPK complex 1 (containing alpha1beta1gamma1), sequence (P54619 whole entry partner): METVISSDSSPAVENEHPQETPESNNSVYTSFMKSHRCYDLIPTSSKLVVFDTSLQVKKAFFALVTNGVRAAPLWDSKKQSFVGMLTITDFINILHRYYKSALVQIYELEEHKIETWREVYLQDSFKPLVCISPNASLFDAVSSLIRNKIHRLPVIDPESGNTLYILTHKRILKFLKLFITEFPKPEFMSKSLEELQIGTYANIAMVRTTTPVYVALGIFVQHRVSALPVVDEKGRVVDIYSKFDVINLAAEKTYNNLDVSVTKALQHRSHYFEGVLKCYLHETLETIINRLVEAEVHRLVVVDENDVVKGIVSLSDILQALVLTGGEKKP

Structure (SMILES) | EC50 [nM]
CN(C)S(C)(=O)=NCc1ccc(-c2ccc(-c3nc4[nH]c(O[C@@H]5CO[C@H]6[C@@H]5OC[C@H]6O)nc4cc3Cl)cc2)cc1 (stereo partly drawn) [Example 20, N′—({4-[4-(2-{[(3R,3aR,6R,6aR)-6-Hydroxy-hexahydrofuro[3,2-b]furan-3-yl]oxy}-6-chloro-3H-imidazo[4,5-b]pyridin-5-yl)phenyl]phenyl}methyl)-N,N-dimethyl-methanesulfonimidamide] | 82
CN(C)S(C)(=O)=Nc1ccc(-c2nc3[nH]c(O[C@@H]4CO[C@H]5[C@@H]4OC[C@H]5O)nc3cc2Cl)cc1 (stereo partly drawn) [Example 21, N′-[4-(2-{[(3R,3aR,6R,6aR)-6-Hydroxy-hexahydrofuro[3,2-b]furan-3-yl]oxy}-6-chloro-3H-imidazo[4,5-b]pyridin-5-yl)phenyl]-N,N-dimethyl-methanesulfonimidamide] | 2900
